Here are results for eight compounds from patent US11020399B2, “Intermediates useful in the synthesis of compounds as modulators of protein kinases” (Rhizen Pharmaceuticals SA, priority 2011, dated 2021).

Common to all, as to format: biochemical
The target in one test is PI3kγ (Homo sapiens, UniProt P48736). Kind of test: Fluorescent (HTRF) determination of PI3 kinase enzyme activity, PI3Kγ. Particulars: for inhibition at 0.3 µM: 300 nM (Examples 1-59). The source says: (§1) Assay 1: Fluorescent Determination of PI3Kinase Kinase Enzyme Activity
Sequence of PI3kγ (P48736 whole entry, canonical isoform): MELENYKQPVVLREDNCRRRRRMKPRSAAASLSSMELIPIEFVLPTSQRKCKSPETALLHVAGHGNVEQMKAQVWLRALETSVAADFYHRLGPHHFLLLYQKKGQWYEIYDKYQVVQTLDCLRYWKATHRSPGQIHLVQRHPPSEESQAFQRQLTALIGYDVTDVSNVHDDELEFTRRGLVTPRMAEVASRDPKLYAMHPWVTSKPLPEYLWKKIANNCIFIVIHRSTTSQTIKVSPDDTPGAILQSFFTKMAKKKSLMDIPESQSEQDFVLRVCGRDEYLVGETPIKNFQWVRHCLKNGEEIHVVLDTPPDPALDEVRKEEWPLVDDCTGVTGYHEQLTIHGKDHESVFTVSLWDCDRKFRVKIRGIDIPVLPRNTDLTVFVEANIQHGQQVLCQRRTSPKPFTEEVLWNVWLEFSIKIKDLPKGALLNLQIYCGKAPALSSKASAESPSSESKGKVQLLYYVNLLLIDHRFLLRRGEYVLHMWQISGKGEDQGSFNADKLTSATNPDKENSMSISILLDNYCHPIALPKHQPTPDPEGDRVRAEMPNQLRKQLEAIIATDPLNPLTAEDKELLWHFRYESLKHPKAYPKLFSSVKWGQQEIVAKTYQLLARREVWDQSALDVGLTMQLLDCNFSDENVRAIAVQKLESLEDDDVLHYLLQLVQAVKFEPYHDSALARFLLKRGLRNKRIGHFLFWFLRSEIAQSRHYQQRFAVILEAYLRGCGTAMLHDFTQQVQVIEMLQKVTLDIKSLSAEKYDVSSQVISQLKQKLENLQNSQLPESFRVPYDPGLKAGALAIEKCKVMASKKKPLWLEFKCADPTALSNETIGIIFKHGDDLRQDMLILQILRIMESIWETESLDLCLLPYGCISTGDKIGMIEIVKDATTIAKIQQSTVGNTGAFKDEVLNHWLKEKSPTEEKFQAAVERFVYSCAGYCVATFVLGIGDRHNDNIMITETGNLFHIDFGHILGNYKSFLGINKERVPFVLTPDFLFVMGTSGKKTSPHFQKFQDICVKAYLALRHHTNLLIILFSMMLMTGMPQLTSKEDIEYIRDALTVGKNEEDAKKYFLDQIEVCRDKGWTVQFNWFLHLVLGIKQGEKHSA
(§2) Phosphoinositide 3 kinases (PI3K) belong to a class of lipid kinases that play a critical role in the regulation of several key cellular processes. The PI3K are capable of phosphorylating the 3-hydroxy position of phosphoinositols thereby generating second messengers involved in downstream signalling events. The homogenous time resolved fluorescence (HTRF) assay allows detection of 3,4,5-triphosphate (PIP3) formed as a result of phosphorylation of phosphotidylinositol 4,5-biphosphate (PIP2) by PI3K isoforms such as α, β, γ or δ. PI3K isoform activity for a, p, y or 8 was determined using a PI3K human HTRF™ Assay Kit (Millipore, Billerica, Mass.) with modifications. All incubations were carried out at room temperature. Briefly, 0.5 μl of 40× inhibitor (in 100% DMSO) or 100% DMSO were added to each well of a 384-well black plate (Greiner Bio-One, Monroe, N.C.) containing 14.5 μl IX reaction buffer /PIP2 (10 mM MgCl2, 5 mM DTT, 1.38 μM PIP2) mix with or without enzyme and incubated for 10 min. After the initial incubation, 5 μl/well of 400 μM ATP was added and incubated for an additional 30 minutes. Reaction was terminated by adding 5 μl/well stop solution (Millipore, Billerica, Mass.). Five microliters of detection mix (Millipore, Billerica, Mass.) were then added to each well and was incubated for 6-18 h in the dark. HRTF ratio was measured on a microplate reader (BMG Labtech., Germany) at an excitation wavelength of 337 nm and emission wavelengths of 665 and 620 nm with an integration time of 400 μsec.
(§3) Data were analyzed using Graphpad Prism (Graphpad software; San Diego Calif.) for IC50 determination. Examples 1-59 were tested at 1 uM for Pi3kα & Pi3k β and at 0.3 uM for γ and δ. Examples 60-137 were tested at 1 uM for Pi3kα & Pi3k β and at 0.1 uM for γ and δ. Percent inhibition was calculated based on the values for the blank and enzyme controls. The results are as provided in Table 2 (wherein D=0 to 25%; C=>25 to 50%; B=>50 to 75%; A=>75 to 100%; +++++=≤50 nM; ++++=>50 to ≤100 nM; +++=>100 to ≤300 nM; ++=>300 to ≤500 nM; +=>500 nM)

Another test addresses PI3kα (Homo sapiens, UniProt P42336). Briefly: Fluorescent (HTRF) determination of PI3 kinase enzyme activity, PI3Kα. Particulars: 1 uM.
Source text: as §1, §2, §3

In a further test the target is PI3kδ (Homo sapiens, UniProt O00329). Kind of test: Fluorescent (HTRF) determination of PI3 kinase enzyme activity, PI3Kδ. Particulars: for inhibition at 0.3 µM: 300 nM (Examples 1-59).
Sequence of PI3kδ (O00329 whole entry): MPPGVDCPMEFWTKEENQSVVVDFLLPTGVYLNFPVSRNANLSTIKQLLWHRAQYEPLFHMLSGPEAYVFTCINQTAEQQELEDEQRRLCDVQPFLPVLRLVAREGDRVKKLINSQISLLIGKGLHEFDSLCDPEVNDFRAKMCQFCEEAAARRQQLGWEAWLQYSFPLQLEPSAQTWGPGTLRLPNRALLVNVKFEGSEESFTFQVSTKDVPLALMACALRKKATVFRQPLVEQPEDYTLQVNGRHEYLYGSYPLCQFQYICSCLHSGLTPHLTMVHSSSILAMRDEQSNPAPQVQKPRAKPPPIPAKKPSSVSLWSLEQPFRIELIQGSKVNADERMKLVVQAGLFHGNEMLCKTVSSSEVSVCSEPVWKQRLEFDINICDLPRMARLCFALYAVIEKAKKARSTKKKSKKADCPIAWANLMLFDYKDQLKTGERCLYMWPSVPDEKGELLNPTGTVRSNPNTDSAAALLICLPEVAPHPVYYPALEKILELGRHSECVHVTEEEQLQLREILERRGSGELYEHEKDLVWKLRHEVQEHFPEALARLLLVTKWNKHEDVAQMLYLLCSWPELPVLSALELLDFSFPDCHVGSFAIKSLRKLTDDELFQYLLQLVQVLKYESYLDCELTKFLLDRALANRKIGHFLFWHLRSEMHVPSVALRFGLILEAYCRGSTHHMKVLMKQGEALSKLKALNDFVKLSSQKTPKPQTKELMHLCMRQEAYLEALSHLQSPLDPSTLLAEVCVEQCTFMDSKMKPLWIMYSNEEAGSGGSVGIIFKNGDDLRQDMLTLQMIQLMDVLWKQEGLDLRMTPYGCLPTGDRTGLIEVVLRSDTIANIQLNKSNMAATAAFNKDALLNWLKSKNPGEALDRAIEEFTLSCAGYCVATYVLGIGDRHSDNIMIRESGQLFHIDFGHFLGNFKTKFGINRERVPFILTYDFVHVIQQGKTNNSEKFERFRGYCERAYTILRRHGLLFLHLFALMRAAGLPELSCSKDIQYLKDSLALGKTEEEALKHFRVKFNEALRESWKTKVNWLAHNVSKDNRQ
Sequence of PI3kδ (P27986 whole entry partner): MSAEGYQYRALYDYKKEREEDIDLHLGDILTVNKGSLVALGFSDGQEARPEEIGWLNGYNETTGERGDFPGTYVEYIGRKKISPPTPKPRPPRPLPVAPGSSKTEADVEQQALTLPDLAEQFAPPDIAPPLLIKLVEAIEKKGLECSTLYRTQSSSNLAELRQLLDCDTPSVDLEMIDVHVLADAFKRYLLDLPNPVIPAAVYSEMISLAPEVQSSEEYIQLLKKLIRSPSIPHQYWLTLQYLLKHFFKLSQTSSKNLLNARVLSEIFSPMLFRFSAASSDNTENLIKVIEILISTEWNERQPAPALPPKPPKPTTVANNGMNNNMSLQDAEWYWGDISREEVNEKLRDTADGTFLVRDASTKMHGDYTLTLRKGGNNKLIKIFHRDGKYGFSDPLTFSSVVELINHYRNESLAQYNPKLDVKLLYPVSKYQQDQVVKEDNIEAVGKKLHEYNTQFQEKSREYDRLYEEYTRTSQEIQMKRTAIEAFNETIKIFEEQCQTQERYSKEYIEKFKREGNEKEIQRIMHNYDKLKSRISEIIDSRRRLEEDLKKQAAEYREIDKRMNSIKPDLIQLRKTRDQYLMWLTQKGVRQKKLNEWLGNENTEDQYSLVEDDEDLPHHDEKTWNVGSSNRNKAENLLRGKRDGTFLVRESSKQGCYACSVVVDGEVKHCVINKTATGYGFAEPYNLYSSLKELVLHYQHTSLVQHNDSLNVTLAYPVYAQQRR
Source text: as §1, §2, §3
(TR-FRET usually uses a lanthanide donor and a delayed reading to cut background.)

A further test addresses PI3kβ (Homo sapiens, UniProt P42338). Kind of test: Fluorescent (HTRF) determination of PI3 kinase enzyme activity, PI3Kβ. Particulars: 1 uM.
Source text: as §1, §2, §3

Sequence of PI3kβ (P42338 whole entry): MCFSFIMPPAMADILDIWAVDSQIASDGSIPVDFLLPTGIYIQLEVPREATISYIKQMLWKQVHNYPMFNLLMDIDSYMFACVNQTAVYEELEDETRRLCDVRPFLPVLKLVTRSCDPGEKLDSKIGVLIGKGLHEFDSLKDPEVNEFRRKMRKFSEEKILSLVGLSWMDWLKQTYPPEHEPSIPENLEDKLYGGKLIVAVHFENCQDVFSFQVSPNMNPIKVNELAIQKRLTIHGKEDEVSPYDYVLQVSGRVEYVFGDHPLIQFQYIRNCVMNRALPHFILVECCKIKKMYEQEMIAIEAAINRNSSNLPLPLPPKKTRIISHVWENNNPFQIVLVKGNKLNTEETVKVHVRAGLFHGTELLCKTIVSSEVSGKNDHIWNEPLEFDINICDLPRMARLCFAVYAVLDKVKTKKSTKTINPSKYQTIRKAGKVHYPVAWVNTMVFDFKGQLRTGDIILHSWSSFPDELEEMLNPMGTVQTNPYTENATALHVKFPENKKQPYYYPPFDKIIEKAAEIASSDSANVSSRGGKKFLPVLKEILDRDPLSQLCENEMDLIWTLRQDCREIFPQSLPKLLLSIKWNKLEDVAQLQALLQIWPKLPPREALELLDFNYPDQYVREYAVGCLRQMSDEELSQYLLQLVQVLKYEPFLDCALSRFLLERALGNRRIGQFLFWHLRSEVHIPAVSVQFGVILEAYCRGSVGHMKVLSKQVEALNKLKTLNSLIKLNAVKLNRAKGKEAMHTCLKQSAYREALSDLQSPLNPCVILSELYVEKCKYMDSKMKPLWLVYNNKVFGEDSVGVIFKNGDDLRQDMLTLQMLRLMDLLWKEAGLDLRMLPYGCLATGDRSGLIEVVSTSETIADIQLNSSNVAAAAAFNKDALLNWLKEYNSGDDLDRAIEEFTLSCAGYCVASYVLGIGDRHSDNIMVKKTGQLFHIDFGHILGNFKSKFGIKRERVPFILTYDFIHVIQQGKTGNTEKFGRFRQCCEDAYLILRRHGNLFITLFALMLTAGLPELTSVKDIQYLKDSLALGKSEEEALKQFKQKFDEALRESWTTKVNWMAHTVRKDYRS
Sequence of PI3kβ (P27986 whole entry partner): as the sequence (P27986 whole entry partner) above
Sequence of PI3kα (P42336 whole entry): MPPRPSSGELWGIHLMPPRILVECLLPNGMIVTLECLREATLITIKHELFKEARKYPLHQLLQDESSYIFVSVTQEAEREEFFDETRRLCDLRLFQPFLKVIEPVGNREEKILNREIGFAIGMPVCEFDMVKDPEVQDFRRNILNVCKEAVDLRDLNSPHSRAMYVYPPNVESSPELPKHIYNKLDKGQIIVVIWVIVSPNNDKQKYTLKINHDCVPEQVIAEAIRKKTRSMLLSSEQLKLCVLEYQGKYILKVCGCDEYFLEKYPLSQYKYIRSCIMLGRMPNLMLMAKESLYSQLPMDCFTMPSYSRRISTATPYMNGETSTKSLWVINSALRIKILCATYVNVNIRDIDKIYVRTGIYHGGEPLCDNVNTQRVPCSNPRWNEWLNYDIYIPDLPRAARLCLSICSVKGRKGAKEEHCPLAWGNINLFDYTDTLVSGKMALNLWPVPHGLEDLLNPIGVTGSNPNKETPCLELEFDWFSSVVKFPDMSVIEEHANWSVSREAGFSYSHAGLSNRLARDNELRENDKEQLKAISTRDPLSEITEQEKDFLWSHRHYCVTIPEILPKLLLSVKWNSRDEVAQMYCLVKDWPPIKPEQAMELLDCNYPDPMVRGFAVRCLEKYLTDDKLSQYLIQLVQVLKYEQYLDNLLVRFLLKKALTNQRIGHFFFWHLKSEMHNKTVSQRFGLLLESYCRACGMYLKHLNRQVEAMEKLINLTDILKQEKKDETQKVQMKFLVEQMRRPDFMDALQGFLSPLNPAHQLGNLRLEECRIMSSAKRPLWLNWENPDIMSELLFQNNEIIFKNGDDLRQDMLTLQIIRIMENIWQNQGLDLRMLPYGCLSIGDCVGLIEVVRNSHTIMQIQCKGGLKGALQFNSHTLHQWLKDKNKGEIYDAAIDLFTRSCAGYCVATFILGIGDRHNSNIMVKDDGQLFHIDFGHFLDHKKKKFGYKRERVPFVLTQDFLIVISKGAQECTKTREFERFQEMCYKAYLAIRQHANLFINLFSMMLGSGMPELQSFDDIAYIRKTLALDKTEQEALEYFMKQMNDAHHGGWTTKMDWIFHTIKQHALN
Sequence of PI3kα (P27986 whole entry partner): as the sequence (P27986 whole entry partner) above

A word on the inhibition: it is the percentage by which the read-out fell short of the control. A high value points to a strong effect. Turning to `CCc1nn(C(C)c2oc3cccc(F)c3c(=O)c2-c2cccc(F)c2)c2ncnc(N)c12` (stereo not drawn) [Example 34, 2-(1-(4-amino-3-ethyl-1H-pyrazolo[3,4-d]pyrimidin-1-yl)ethyl)-5-fluoro-3-(3-fluorophenyl)-4H-chromen-4-one], the inhibition at 0.3 µM at PI3kγ and against PI3kδ was 50 to 75% throughout. Besides, the inhibition at 1 µM at PI3kα is 0 to 25%; at PI3kβ, 25 to 50%.
In general, IC50 refers to the concentration that gives 50% inhibition. On to `CC(c1oc2cccc(F)c2c(=O)c1-c1cccc(F)c1)n1nc(-c2cn[nH]c2)c2c(N)ncnc21` (stereo not drawn) [Example 10, 2-(1-(4-amino-3-(1H-pyrazol-4-yl)-1H-pyrazolo[3,4-d]pyrimidin-1-yl)ethyl)-5-fluoro-3-(3-fluorophenyl)-4H-chromen-4-one], for which, at PI3kγ, the IC50 is 100 to 300 nM. Besides, the inhibition at 0.3 µM on PI3kγ lay in the range of 75 to 100%; against PI3kδ, 25 to 50%. Further, the inhibition at 1 µM was 25 to 50% against PI3kα and 0 to 25% on PI3kβ.
Consider `Cc1n[nH]c2cc(-c3nn(C(C)c4oc5cccc(F)c5c(=O)c4-c4cccc(F)c4)c4ncnc(N)c34)ccc12` (stereo not drawn) [Example 9, 2-(1-(4-amino-3-(3-methyl-1H-indazol-6-yl)-1H-pyrazolo[3,4-d]pyrimidin-1-yl)ethyl)-5-fluoro-3-(3-fluorophenyl)-4H-chromen-4-one], for which the values for the IC50 against PI3kγ and on PI3kδ were 50 to 100 nM and at most 50 nM, respectively. Also, the inhibition at 0.3 µM on PI3kγ and on PI3kδ was 75 to 100% in each case. In addition, the inhibition at 1 µM at PI3kα and at PI3kβ was 25 to 50% each time.
For `Cc1cc(-c2nn(C(C)c3oc4cccc(F)c4c(=O)c3-c3cccc(F)c3)c3ncnc(N)c23)ccc1OC(C)C` (stereo not drawn) [Example 50, 2-(1-(4-amino-3-(4-isopropoxy-3-methylphenyl)-1H-pyrazolo[3,4-d]pyrimidin-1-yl)ethyl)-5-fluoro-3-(3-fluorophenyl)-4H-chromen-4-one], the inhibition at 0.3 µM was 50 to 75% at PI3kγ and 75 to 100% on PI3kδ. Further, the “% inhibition (PI3kα) 1 uM” value on PI3kα is listed as “D (D=0 to 25%)”. For the same compound, on PI3kβ, the “% inhibition (PI3kβ) 1 uM” value was “C (C=>25 to 50%)”.
At PI3kγ, `CC(c1oc2cccc(F)c2c(=O)c1-c1cccc(F)c1)n1nc(-c2ccc(N3CCOCC3)c(F)c2)c2c(N)ncnc21` (stereo not drawn) [Example 25, 2-(1-(4-amino-3-(3-fluoro-4-morpholinophenyl)-1H-pyrazolo[3,4-d]pyrimidin-1-yl)ethyl)-5-fluoro-3-(3-fluorophenyl)-4H-chromen-4-one] came in with an IC50 of at most 50 nM and an inhibition at 0.3 µM of 75 to 100%. This compound also showed an inhibition at 1 µM against PI3kα of 0 to 25%. The same compound registered an inhibition at 1 µM against PI3kβ of 25 to 50%.
For `Cc1nc2cc(-c3nn(C(C)c4oc5cccc(F)c5c(=O)c4-c4cccc(F)c4)c4ncnc(N)c34)ccc2[nH]1` (stereo not drawn) [Example 26, 2-(1-(4-amino-3-(2-methyl-1H-benzo[d]imidazol-5-yl)-1H-pyrazolo[3,4-d]pyrimidin-1-yl)ethyl)-5-fluoro-3-(3-fluorophenyl)-4H-chromen-4-one] the same measures were 50 to 100 nM, 75 to 100%, 0 to 25% and 25 to 50%.
For `CC(c1oc2cccc(F)c2c(=O)c1-c1cccc(F)c1)n1nc(-c2ccc(N(C)C)c(F)c2)c2c(N)ncnc21` (stereo not drawn) [Example 24, 2-(1-(4-amino-3-(4-(dimethylamino)-3-fluorophenyl)-1H-pyrazolo[3,4-d]pyrimidin-1-yl)ethyl)-5-fluoro-3-(3-fluorophenyl)-4H-chromen-4-one], the inhibition at 0.3 µM against PI3kγ was in the range of 25 to 50%. The inhibition at 1 µM against PI3kα lay within 0 to 25%; against PI3kβ, 50 to 75%.
Regarding `COc1cccc2oc(Cn3nc(-c4ccc(OC(C)C)c(F)c4)c4c(N)ncnc43)c(-c3cccc(F)c3)c(=O)c12` [Example 2, 2-((4-Amino-3-(3-fluoro-4-isopropoxyphenyl)-1H-pyrazolo[3,4-d]pyrimidin-1-yl)methyl)-3-(3-fluorophenyl)-5-methoxy-4H-chromen-4-one], the inhibition at 1 µM on PI3kα and against PI3kβ was 0 to 25% each time. Moreover, the inhibition at 0.3 µM on PI3kδ fell in the range of 50 to 75%.
